Assay results reported in patent US9902736B2, “1-oxo/acylation-14-acylated oridonin derivative, preparation method therefor and application thereof” (HANGZHOU BENSHENG PHARMACEUTICAL CO., LTD., priority 2012, dated 2018).
≈ marks a conversion by molar mass, not a printed value.

What was measured:
K562/ADR = experiment: Leukemia cell growth inhibition, MTT, 72 h; format: cell-based; details: Homo sapiens
Description: (§1) Leukemia cell lines: leukemia cell lines: K562/adr (drug-resistant, chronic myeloid leukemia, CML), NB4 (acute promyelocytic leukemia, AML), Kasumi-1 (acute myeloid leukemia M2 type, AML-M2), Jurkat (acute lymphoblastic leukemia, ALL), all of which were donated by Cancer Research Institute of Zhejiang University, China; and H9 (acute lymphoblastic leukemia, ALL), which was purchased from China Center for Type Culture Collection.
(§2) 6000 well-growing leukemia cells were obtained and inoculated into wells of a 96-well cell culture plate. […] On the next day, the 1-oxo/acylated-14-acylated oridonin derivatives of different concentrations were added and mixed uniformly. The plate was placed in a carbon dioxide cell incubator (5% CO2) at 37° C. and was incubated for 72 hours. Then the viable cell concentration was determined by MTT method.

Kasumi-1 = experiment: Leukemia cell growth inhibition, MTT, 72 h; format: cell-based; details: Homo sapiens
Description: as §1, §2

H9 = experiment: Leukemia cell growth inhibition, MTT, 72 h; format: cell-based, human; details: Homo sapiens, H9; 72 h, MTT
Description: as §1, §2

Jurkat = experiment: Leukemia cell growth inhibition, MTT, 72 h; format: cell-based, human; details: Homo sapiens, Jurkat; 72 h, MTT
Description: as §1, §2

NB4 = experiment: Leukemia cell growth inhibition, MTT, 72 h; format: cell-based, human; details: Homo sapiens, NB-4; 72 h, MTT
Description: as §1, §2

RPMI 8226 = experiment: Multiple myeloma cell growth inhibition, MTT, 72 h; format: cell-based; details: Homo sapiens
Procedure: Multiple myeloma cell lines: RPMI8226 (multiple myeloma), purchased from Fuxiang Bio-tech Co. Ltd., Shanghai, China.
as §2, with “well-growing” for “well-growing leukemia”, “and” for “and was”

CNE = experiment: Solid tumor cell growth inhibition, MTT, 72 h; format: cell-based, human; details: Homo sapiens, CNE; 72 h, MTT
Procedure: (§3) 6000 well-growing human solid tumor cells were obtained and inoculated into wells of a 96-well cell culture plate. The culture medium was DMEM High Glucose cell culture medium containing 10% fetal bovine serum. The plate was placed in a carbon dioxide cell incubator (5% CO2) at 37° C. and incubated for 24 hours. After added with 1-oxo/acylated-14-acylated oridonin derivatives of different concentration and mixed uniformly, the plate was placed in a carbon dioxide cell incubator (5% CO2) at 37° C. and incubated for 72 hours. Then the viable cell concentration was determined by MTT method.

Hela = experiment: Solid tumor cell growth inhibition, MTT, 72 h; format: cell-based, human; details: Homo sapiens, HeLa; 72 h, MTT
Procedure: as §3

Hep-2 = experiment: Solid tumor cell growth inhibition, MTT, 72 h; format: cell-based, human; details: Homo sapiens, HEp-2; 72 h, MTT
Procedure: as §3

MGC-803 = experiment: Solid tumor cell growth inhibition, MTT, 72 h; format: cell-based, human; details: Homo sapiens, MGC-803; 72 h, MTT
Procedure: as §3

A549 = experiment: Solid tumor cell growth inhibition, MTT, 72 h; format: cell-based; details: Homo sapiens
Procedure: as §3

Becap-37 = experiment: Solid tumor cell growth inhibition, MTT, 72 h; format: cell-based; details: Homo sapiens
Procedure: as §3

CaEs-17 = experiment: Solid tumor cell growth inhibition, MTT, 72 h; format: cell-based; details: Homo sapiens, CaEs17
Procedure: as §3

Hep G2 = experiment: Solid tumor cell growth inhibition, MTT, 72 h; format: cell-based; details: Homo sapiens, HepG2
Procedure: as §3

MG-63 = experiment: Solid tumor cell growth inhibition, MTT, 72 h; format: cell-based; details: Homo sapiens
Procedure: as §3

PANC-1 = experiment: Solid tumor cell growth inhibition, MTT, 72 h; format: cell-based; details: Homo sapiens
Procedure: as §3

PC-3 = experiment: Solid tumor cell growth inhibition, MTT, 72 h; format: cell-based; details: Homo sapiens
Procedure: as §3

RKO = experiment: Solid tumor cell growth inhibition, MTT, 72 h; format: cell-based; details: Homo sapiens
Procedure: as §3

SK-OV-3 = experiment: Solid tumor cell growth inhibition, MTT, 72 h; format: cell-based; details: Homo sapiens, SK-OV-3, 72 h, MTT; for IC50: read-out: IC50 SK-OV-3; for IC90: read-out: IC90 SK-OV-3
Procedure: as §3

U87-MG = experiment: Solid tumor cell growth inhibition, MTT, 72 h; format: cell-based; details: Homo sapiens, U-87 MG
Procedure: as §3

## C=C1C(=O)[C@]23[C@H](OC(=O)C4CCC(NC(=O)c5ccccn5)CC4)[C@H]1CC[C@H]2[C@@]12CO[C@@]3(O)[C@@H](O)[C@@H]1C(C)(C)CCC2=O (stereo partly drawn) [BS-OR-083]
K562/ADR
  IC50: 0.58 µg/mL (≈ 0.979 µM)
  IC90: 1.94 µg/mL (≈ 3.27 µM)
Kasumi-1
  IC50: 1.09 µg/mL (≈ 1.84 µM)
  IC90: 2.59 µg/mL (≈ 4.37 µM)
H9
  IC50: 0.56 µg/mL (≈ 0.945 µM)
  IC90: 1.54 µg/mL (≈ 2.6 µM)
Jurkat
  IC50: 0.89 µg/mL (≈ 1.5 µM)
  IC90: 4.13 µg/mL (≈ 6.97 µM)
NB4
  IC50: 0.31 µg/mL (≈ 0.523 µM)
  IC90: 0.99 µg/mL (≈ 1.67 µM)
RPMI 8226
  IC50: 0.85 µg/mL (≈ 1.43 µM)
  IC90: 2.92 µg/mL (≈ 4.93 µM)
CNE
  IC50: 1.52 µg/mL (≈ 2.56 µM)
  IC90: 4.42 µg/mL (≈ 7.46 µM)
Hela
  IC50: 1.92 µg/mL (≈ 3.24 µM)
  IC90: 4.95 µg/mL (≈ 8.35 µM)
Hep-2
  IC50: 3.13 µg/mL (≈ 5.28 µM)
  IC90: 15.5 µg/mL (≈ 26.2 µM)
MGC-803
  IC50: 1.26 µg/mL (≈ 2.13 µM)
  IC90: 5.57 µg/mL (≈ 9.4 µM)
A549
  IC50: 5.07 µg/mL (≈ 8.55 µM)
  IC90: 11.3 µg/mL (≈ 19.1 µM)
Becap-37
  IC50: 2.21 µg/mL (≈ 3.73 µM)
  IC90: 6.5 µg/mL (≈ 11 µM)
CaEs-17
  IC50: 1.71 µg/mL (≈ 2.89 µM)
  IC90: 10.2 µg/mL (≈ 17.2 µM)
Hep G2
  IC50: 2.83 µg/mL (≈ 4.77 µM)
  IC90: 11.9 µg/mL (≈ 20.1 µM)
MG-63
  IC50: 0.76 µg/mL (≈ 1.28 µM)
  IC90: 1.7 µg/mL (≈ 2.87 µM)
PANC-1
  IC50: 3.14 µg/mL (≈ 5.3 µM)
  IC90: 9.16 µg/mL (≈ 15.5 µM)
PC-3
  IC50: 3.16 µg/mL (≈ 5.33 µM)
  IC90: 6.8 µg/mL (≈ 11.5 µM)
RKO
  IC50: 0.68 µg/mL (≈ 1.15 µM)
  IC90: 1.68 µg/mL (≈ 2.83 µM)
SK-OV-3
  IC50: 3.16 µg/mL (≈ 5.33 µM)
  IC90: 6.8 µg/mL (≈ 11.5 µM)
U87-MG
  IC50: 1.29 µg/mL (≈ 2.18 µM)
  IC90: 4.61 µg/mL (≈ 7.78 µM)

## C=C1C(=O)[C@]23[C@H](OC(=O)C4CCN(S(=O)(=O)c5ccccc5[N+](=O)[O-])CC4)[C@H]1CC[C@H]2[C@@]12CO[C@@]3(O)[C@@H](O)[C@@H]1C(C)(C)CCC2=O [BS-OR-034]
K562/ADR
  IC50: 1.52 µg/mL (≈ 2.31 µM)
  IC90: 4.77 µg/mL (≈ 7.24 µM)
Kasumi-1
  IC50: 1.58 µg/mL (≈ 2.4 µM)
  IC90: 3.46 µg/mL (≈ 5.25 µM)
H9
  IC50: 0.78 µg/mL (≈ 1.18 µM)
  IC90: 1.73 µg/mL (≈ 2.63 µM)
Jurkat
  IC50: 1.32 µg/mL (≈ 2 µM)
  IC90: 5.36 µg/mL (≈ 8.14 µM)
NB4
  IC50: 0.5 µg/mL (≈ 0.759 µM)
  IC90: 1.94 µg/mL (≈ 2.95 µM)
RPMI 8226
  IC50: 1.48 µg/mL (≈ 2.25 µM)
  IC90: 3.83 µg/mL (≈ 5.81 µM)
CNE
  IC50: 3.73 µg/mL (≈ 5.66 µM)
  IC90: 10.2 µg/mL (≈ 15.6 µM)
Hela
  IC50: 2.98 µg/mL (≈ 4.52 µM)
  IC90: 7.76 µg/mL (≈ 11.8 µM)
Hep-2
  IC50: 3.97 µg/mL (≈ 6.03 µM)
  IC90: 13.3 µg/mL (≈ 20.3 µM)
MGC-803
  IC50: 2.89 µg/mL (≈ 4.39 µM)
  IC90: 8.83 µg/mL (≈ 13.4 µM)
A549
  IC50: 6.43 µg/mL (≈ 9.76 µM)
  IC90: 11.9 µg/mL (≈ 18.1 µM)
Becap-37
  IC50: 3.24 µg/mL (≈ 4.92 µM)
  IC90: 10.1 µg/mL (≈ 15.4 µM)
CaEs-17
  IC50: 3.48 µg/mL (≈ 5.28 µM)
  IC90: 11 µg/mL (≈ 16.7 µM)
Hep G2
  IC50: 3.81 µg/mL (≈ 5.78 µM)
  IC90: > 16 µg/mL
MG-63
  IC50: 1.28 µg/mL (≈ 1.94 µM)
  IC90: 3.22 µg/mL (≈ 4.89 µM)
PANC-1
  IC50: 4.99 µg/mL (≈ 7.58 µM)
  IC90: 11.9 µg/mL (≈ 18.1 µM)
PC-3
  IC50: 3.88 µg/mL (≈ 5.89 µM)
  IC90: 9.45 µg/mL (≈ 14.3 µM)
RKO
  IC50: 1.21 µg/mL (≈ 1.84 µM)
  IC90: 1.97 µg/mL (≈ 2.99 µM)
SK-OV-3
  IC50: 3.88 µg/mL (≈ 5.89 µM)
  IC90: 9.45 µg/mL (≈ 14.3 µM)
U87-MG
  IC50: 2.16 µg/mL (≈ 3.28 µM)
  IC90: 6.75 µg/mL (≈ 10.2 µM)

## C=C1C(=O)[C@]23[C@H](OC(=O)C4CCN(S(=O)(=O)c5cccc([N+](=O)[O-])c5)CC4)[C@H]1CC[C@H]2[C@@]12CO[C@@]3(O)[C@@H](O)[C@@H]1C(C)(C)CCC2=O [BS-OR-037]
K562/ADR
  IC50: 1.32 µg/mL (≈ 2 µM)
  IC90: 3.6 µg/mL (≈ 5.47 µM)
Kasumi-1
  IC50: 1.41 µg/mL (≈ 2.14 µM)
  IC90: 3.19 µg/mL (≈ 4.84 µM)
H9
  IC50: 1.64 µg/mL (≈ 2.49 µM)
  IC90: 3.46 µg/mL (≈ 5.25 µM)
Jurkat
  IC50: 1.16 µg/mL (≈ 1.76 µM)
  IC90: 4.4 µg/mL (≈ 6.68 µM)
NB4
  IC50: 0.35 µg/mL (≈ 0.531 µM)
  IC90: 1.66 µg/mL (≈ 2.52 µM)
RPMI 8226
  IC50: 1.7 µg/mL (≈ 2.58 µM)
  IC90: 3.73 µg/mL (≈ 5.66 µM)
CNE
  IC50: 2.95 µg/mL (≈ 4.48 µM)
  IC90: 8.76 µg/mL (≈ 13.3 µM)
Hela
  IC50: 3.41 µg/mL (≈ 5.18 µM)
  IC90: 10.1 µg/mL (≈ 15.3 µM)
Hep-2
  IC50: 3.58 µg/mL (≈ 5.43 µM)
  IC90: 15.3 µg/mL (≈ 23.2 µM)
MGC-803
  IC50: 3.18 µg/mL (≈ 4.83 µM)
  IC90: 6.35 µg/mL (≈ 9.64 µM)
A549
  IC50: 5.72 µg/mL (≈ 8.68 µM)
  IC90: 10.1 µg/mL (≈ 15.4 µM)
Becap-37
  IC50: 2.75 µg/mL (≈ 4.17 µM)
  IC90: 7.47 µg/mL (≈ 11.3 µM)
CaEs-17
  IC50: 3.07 µg/mL (≈ 4.66 µM)
  IC90: 11.2 µg/mL (≈ 16.9 µM)
Hep G2
  IC50: 3.33 µg/mL (≈ 5.06 µM)
  IC90: > 16 µg/mL
MG-63
  IC50: 1.2 µg/mL (≈ 1.82 µM)
  IC90: 3.1 µg/mL (≈ 4.71 µM)
PANC-1
  IC50: 4.98 µg/mL (≈ 7.56 µM)
  IC90: 11.1 µg/mL (≈ 16.8 µM)
PC-3
  IC50: 3.48 µg/mL (≈ 5.28 µM)
  IC90: 7.08 µg/mL (≈ 10.7 µM)
RKO
  IC50: 0.91 µg/mL (≈ 1.38 µM)
  IC90: 1.84 µg/mL (≈ 2.79 µM)
SK-OV-3
  IC50: 3.48 µg/mL (≈ 5.28 µM)
  IC90: 7.08 µg/mL (≈ 10.7 µM)
U87-MG
  IC50: 1.86 µg/mL (≈ 2.82 µM)
  IC90: 4.68 µg/mL (≈ 7.1 µM)
